The values that follow come from patent publication US7977082B2, “Isomaltulose synthases, polynucleotides encoding them and uses therefor” (The University of Queensland of St. Lucia, priority 2001, dated 2011).

In data set [1] the test system is purified SI from P. dispersa 68J. As to the kind of experiment: Inhibition of isomaltulose production by glucose and fructose. The data set is classed as biochemical. The conditions noted are these: 277 mM glucose or fructose. The protocol:
(§1) SI activity was measured by incubating the purified enzyme with different sucrose concentrations (3, 6, 15, 58, 146, 292, 584, 877, 1169 and 1461 mM) under standard assay conditions, and also with addition of glucose, fructose or both to a final concentration of 277 mM. Data were analyzed according to the method of Lineweaver and Burk (Voet and Voet, 1995) to calculate Km and Vmax values.

The test system of data set [2] is purified SI from Klebsiella sp. 14S. The description is as above. The format is biochemical. The conditions noted are these: 277 mM glucose or fructose. The protocol: as §1
The test system of a further data set is P. dispersa 68J. Nature of the data set: Growth in BP medium with different sugars. The format is cell-based. The following applies: 2% sugar added to BP medium, 18 h incubation at 30°C. The protocol: (§2) Isomaltulose production was tested using cells grown in LB and in a basal peptone medium (BP, comprising 1% BBL gelysate peptone and 0.5% NaCl, adjusted to pH 7.0 prior to autoclaving). Glucose, fructose, sucrose, lactose, maltose or isomaltulose was added to the cooled media, from a filter-sterilised stock. The media containing 4% (w/v) sucrose are referred to as SLB and SBP respectively.
(§3) Inoculum of 100 μL from a culture grown for 12 h in LB medium was added to 25 mL growth medium in a 250 mL flask. After 18 h at 30° C. on a shaker at 225 rpm, OD600 was used to measure growth. Cultures were diluted with growth medium to OD600=1.50 (approximately half the cell density of a saturated culture in SLB). Aliquots of 1 mL were harvested by centrifugation at 5000×g for 10 min and washed three times with 0.1 M citrate/phosphate buffer (pH 6.0). The cell pellets were resuspended in 0.4 mL of 0.1 M citrate/phosphate buffer (pH 6.0) containing 50% sucrose (w/v). Culture supernatant was filtered through a 0.2 μm filter (Pall Acrodisc), and 0.1 mL was mixed with 0.4 mL of 0.1 M citrate/phosphate buffer (pH 6.0) containing 50% sucrose (w/v), for parallel testing of culture filtrate and harvested cells in the SI assay.

Data set [3] deals with P. mesoacidophila sucrose isomerase (SI). The following applies: Nagai et al., 1994; Véronèse and Perlot, 1998; cited from earlier work.
Data set [4] has as its system P. rubrum sucrose isomerase (SI). The following applies: Nagai et al., 1994; Véronèse and Perlot, 1998; cited from earlier work.
For data set [5], the system named is E. rhapontici sucrose isomerase (SI). The following applies: Nagai et al., 1994; Véronèse and Perlot, 1998; cited from earlier work.
The target of data set [6] is T1, Pantoea dispersa 68J sucrose isomerase (SI), mature, SEQ ID NO: 10, carboxy-terminal 6×His tag (SEQ ID NO: 52) (Pantoea dispersa, UniProt Q6XNK6).
T1 sequence (Q6XNK6 34-598): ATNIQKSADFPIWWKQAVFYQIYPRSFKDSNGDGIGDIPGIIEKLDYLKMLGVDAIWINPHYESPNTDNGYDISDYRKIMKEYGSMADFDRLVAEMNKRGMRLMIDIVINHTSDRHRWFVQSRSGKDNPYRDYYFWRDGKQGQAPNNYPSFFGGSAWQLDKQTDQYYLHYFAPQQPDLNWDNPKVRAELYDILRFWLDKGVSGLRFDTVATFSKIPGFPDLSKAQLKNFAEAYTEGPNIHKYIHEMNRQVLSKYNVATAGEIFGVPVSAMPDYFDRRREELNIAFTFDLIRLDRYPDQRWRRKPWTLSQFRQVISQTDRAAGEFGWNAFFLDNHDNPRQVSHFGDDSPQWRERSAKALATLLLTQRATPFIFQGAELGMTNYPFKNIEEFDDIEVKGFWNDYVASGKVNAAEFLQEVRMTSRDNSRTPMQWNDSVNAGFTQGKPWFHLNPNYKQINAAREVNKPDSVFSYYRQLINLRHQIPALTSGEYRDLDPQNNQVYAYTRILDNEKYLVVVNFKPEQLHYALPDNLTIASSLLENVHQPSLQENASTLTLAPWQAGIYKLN
Nature of the data set: Sucrose isomerase kinetics, purified SI from P. dispersa 68J (isomaltulose production), with or without glucose/fructose. The data set is classed as biochemical. The following applies: glucose vs fructose, 0.277 M, various sucrose concentrations. As to the method:
(§4) The pET24b vector introduces a carboxy-terminal 6×His tag (SEQ ID NO: 52) on expressed proteins, which were purified by adsorption to Ni-NTA agarose (Qiagen) and elution with 25 mM NaH2PO4, 150 mM NaCl, 125 mM imidazole buffer (pH8.0) following the manufacturer's instructions. For storage, the eluted solution was diluted with 50% glycerol. The purity of SI proteins was tested by SDS-PAGE as described below. A batch procedure using Ni-NTA agarose in suspension yielded predominantly (80-95%) SI with a background of several other protein bands. A procedure using Ni-NTA agarose in adsorption columns yielded preparations containing a single protein band. Unless otherwise specified, this is the form of the purified SI enzymes used for biochemical characterisation.
(§5) Enzyme activities were measured by incubating 5 μl of purified enzyme with 95 μL of sucrose solution at a final concentration of 584 mM in 0.1 M citrate/phosphate buffer (pH 6.0) at 30° C. Sugar profiles in the reaction mix were analysed at intervals by CE as described previously. One unit (U) of SI activity was defined as the amount of enzyme that could release 1 μmol of isomaltulose in one minute at the initial stage of the reaction.
as §1

In data set [7] the test system is K. plymuthica sucrose isomerase (SI). The conditions noted are these: Nagai et al., 1994; Véronèse and Perlot, 1998; cited from earlier work.
Data set [8] addresses T2, Klebsiella sp. 14S sucrose isomerase (SI), carboxy-terminal 6×His tag (SEQ ID NO: 52) (Klebsiella planticola, UniProt Q6XKX6).
T2 sequence (Q6XKX6 29-598): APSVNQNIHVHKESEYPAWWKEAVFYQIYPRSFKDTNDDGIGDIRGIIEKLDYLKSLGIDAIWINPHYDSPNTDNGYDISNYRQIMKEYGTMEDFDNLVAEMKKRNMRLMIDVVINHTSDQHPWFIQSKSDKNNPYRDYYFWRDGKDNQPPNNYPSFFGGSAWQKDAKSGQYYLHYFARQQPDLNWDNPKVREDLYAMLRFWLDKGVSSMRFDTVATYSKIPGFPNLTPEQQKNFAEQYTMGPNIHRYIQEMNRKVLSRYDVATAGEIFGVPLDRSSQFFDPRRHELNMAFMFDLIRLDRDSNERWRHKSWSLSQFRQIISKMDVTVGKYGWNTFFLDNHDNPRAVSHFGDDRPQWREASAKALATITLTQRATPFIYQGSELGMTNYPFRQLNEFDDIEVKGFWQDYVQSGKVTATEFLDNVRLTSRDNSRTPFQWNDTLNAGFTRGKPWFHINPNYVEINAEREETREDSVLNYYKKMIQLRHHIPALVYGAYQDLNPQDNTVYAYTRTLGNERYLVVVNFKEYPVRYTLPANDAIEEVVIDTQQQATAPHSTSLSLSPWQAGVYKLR
Nature of the data set: Sucrose isomerase kinetics, purified SI from Klebsiella sp. 14S (isomaltulose production), with or without glucose/fructose. The data set is classed as biochemical. The following applies: glucose vs fructose, 0.277 M, various sucrose concentrations. As to the method: as §4, with “Unless otherwise specified, this is the form of the purified SI enzymes used for biochemical characterisation.” left out
Enzyme activities were measured by incubating 5 μl of purified enzyme with 95 μL of sucrose solution at a final concentration of 584 mM in 0.1 M citrate/phosphate buffer (pH 6.0) at 30° C. Sugar profiles in the reaction mix were analysed at intervals by CE as described previously. […]
as §1

The next data set relates to E. rhapontici WAC2928. As to the kind of experiment: Growth in BP medium with different sugars. The format is cell-based. The conditions noted are these: 2% sugar added to BP medium, 18 h incubation at 30°C. As to the method: as §2, §3
A short description of data set [9]: Storage stability of purified SI proteins. The format is physicochemical. The conditions noted are these: elution buffer diluted with 50% glycerol. As to the method:
The purified fresh enzymes from SDS-PAGE had specific activities for isomaltulose production of: E. rhapontici: 35 U mg^−1 protein, Klebsiella sp.: 95 U mg^−1 protein and P. dispersa: 632 U mg^−1 protein. The purified SI from E. rhapontici lost function during overnight storage at −20° C. in elution buffer diluted with 50% glycerol. In contrast, the purified enzymes from 14S or P. dispersa retained 100% of the fresh enzyme efficiency for isomaltulose production after 6-month storage at −20° C., or 60% after 15-day storage at room temperature in the same buffer. Because of instability, the E. rhapontici SI was not characterised further in purified form. Cheetham et al., (1984) found substantial differences between E. rhapontici strains for SI stability in immobilized cells, and the enzyme from strain NCPPB 1578 was stable in purified form (Cheetham, 1984).
as §4

Data set [10] in a line: Conversion of sucrose to isomaltulose in transgenic sugarcane callus expressing SI genes. The format is cell-based. The conditions noted are these: cell extracts of transgenic sugarcane callus; 3 of 3 68J lines, 3 of 7 14S lines. The source says:
The sucrose isomerase (SI) gene insert in the pET 24b vector was further cloned between the Ubi promoter from the maize ubi-l gene (Christensen and Quail, 1996, Transgen. Res. 5: 215-218) and the Agrobacterium nos terminator (Bevan et al., 1983, Nature 304: 183-187) to drive expression in sugarcane cells.
Plasmids with the sucrose isomerase genes (pU3ZErw, pU3Z14s or pU3Z68J) and the aph A construct plasmid pEmuKN (as a selectable marker) were isolated by alkaline extraction (Sambrook et al., 1989, supra), and dissolved in TE buffer. Plasmid intactness and absence of genomic DNA or RNA were checked by gel electrophoresis and concentration was measured by spectrophotometry. The sucrose isomerase (UbiSI) gene construct and selectable marker construct were co-precipitated onto tungsten microprojectiles and introduced into sugarcane callus, followed by selection for transformed callus, and regeneration of transgenic plants, essentially described by Bower et al. (1996, Molec. Breed. 2: 239-249).
Precipitation reactions were conducted by adding the following at 4° C. in turn to a 1.5 mL microfuge tube: 5 μL pEmuKN plasmid DNA (1 mg/mL), 5 μL UbiSI plasmid DNA (1 μg/μL), 50 μL tungsten (Bio-Rad M10, 100 μg/μL), 50 μL CaCl2 (2.5M), 20 μL spermidine (100 mM free base). […]

Data set [11] can be described thus: Assay of isolated (purified) SI enzyme activity. The data set is classed as biochemical. The conditions noted are these: purified fresh His-tagged enzymes. The protocol: as §4, §5
The enzymes were incubated with sucrose at different pH ranging from 2.0 to 10.6. The solution of pH 2.0 was buffered in 0.2 M KCl; pH 3.0 to pH 9.0 were in 0.1 M citrate/phosphate buffer; pH 10.0 to pH 10.6 were in 0.2 M glycine buffer. The effect of temperature from 10° C. to 70° C. was measured at pH 6.0. […]

In the case of `O=C(CO)[C@@H](O)[C@H](O)[C@H](O)CO` [fructose], the “mode of inhibition of isomaltulose production” value in [1] and in data set [2] was “competitive inhibitors” each time. For the same molecule, in the data set with P. dispersa 68J, the “effect on growth of P. dispersa 68J” value is recorded as “supported faster growth”.

Consider `OC[C@H]1OC(O)[C@H](O)[C@@H](O)[C@@H]1O` (some centres unmarked) [glucose], for which the Inhibition of activity entry in data set [3], in data set [4], in data set [5] and in data set [7] was “inhibit activity” throughout. The Relative inhibition result in [6] and in [8] was “stronger inhibition than fructose” in each case.

As for `OC[C@H]1O[C@H](OC[C@H]2OC(O)(CO)[C@@H](O)[C@@H]2O)[C@H](O)[C@@H](O)[C@@H]1O` (stereo partly drawn) [isomaltulose, α-D-glucopyranosyl-1,6-D-fructofuranose], the “effect on growth of E. rhapontici WAC2928” value in the data set on E. rhapontici WAC2928 is given as “substantially enhanced growth”. In addition, the “effect on growth of P. dispersa 68J” value with P. dispersa 68J is “little effect”.

B1: Erwinia rhapontici: sucrose isomerase cloned from Erwinia rhapontici WAC2928, SEQ ID NO: 2, mature polypeptide SEQ ID NO: 4 (protein, listed as Erwinia rhapontici)
chain: MSSQELKAAVAIFLATTFSATSYQACSAGPDTAPSLTVQQSNALPTWWKQAVFYQVYPRSFKDTNGDGIGDLNGIIENLDYLKKLGIDAIWINPHYDSPNTDNGYDIRDYRKIMKEYGTMEDFDRLISEMKKRNMRLMIDIVINHTSDQHAWFVQSKSGKNNPYRDYYFWRDGKDGHAPNNYPSFFGGSAWEKDDKSGQYYLHYFAKQQPDLNWDNPKVRQDLYDMLRFWLDKGVXGLRFDTVATYSKIPNFPDLSQQQLKNFAEEYTKGPKIHDYVNEMNREVLSHYDIATAGEIFGVPLDKSIKFFDRRRNELNIAFTFDLIRLDRDADERWRRKDWTLSQFRKIVDKVDQTAGEYGWNAFFLDNHDNPRAVSHFGDDRPQWREHAAKALATLTLTQRATPFIYQGSELGMTNYPFKKIDDFDDVEVKGFWQDYVETGKVKAEEFLTNVRQTSRDNSRTPFQWDASKNAGFTSGTPWLKINPNYKEINSADQINNPNSVFNYYRKLINIRHDIPALTYGSYIDLAPDNNSVYAYTRTFGAEKYLVVINFKEEVMHYTLPGDLSINKVITENNSHTIVNKNDVEDPRGATSVCSPFQAQKRPGDPGYSAAHSIRFLPRFFASYRGDIHAFK
modifications: not fully specified; sig_peptide (1)..(36); mat_peptide (37)..(632); MOD_RES (200)..(200) Any amino acid
For the molecule B1, in data set [9], the “function after overnight storage at −20° C.” value was “lost function”. For the same molecule, the “isomaltulose peak relative to sucrose peak on the CE electrograph” value in data set [10] is listed as “even lower isomaltulose levels than the 14S lines”. Besides, the “specific activity for isomaltulose production” value in [11] is 35 U mg^−1 protein.
